The values that follow come from patent US10093629B2, “Heterocyclic compounds and their use as retinoid-related orphan receptor (ROR) gamma-T inhibitors” (Takeda Pharmaceutical Company Limited, priority 2014, dated 2018).

Read-outs that look alike come from different tables or passages of the source.

The target of test [1] is T1, RORγt (Homo sapiens, UniProt P51449).
T1 sequence (P51449 1-497 isoform P51449-2): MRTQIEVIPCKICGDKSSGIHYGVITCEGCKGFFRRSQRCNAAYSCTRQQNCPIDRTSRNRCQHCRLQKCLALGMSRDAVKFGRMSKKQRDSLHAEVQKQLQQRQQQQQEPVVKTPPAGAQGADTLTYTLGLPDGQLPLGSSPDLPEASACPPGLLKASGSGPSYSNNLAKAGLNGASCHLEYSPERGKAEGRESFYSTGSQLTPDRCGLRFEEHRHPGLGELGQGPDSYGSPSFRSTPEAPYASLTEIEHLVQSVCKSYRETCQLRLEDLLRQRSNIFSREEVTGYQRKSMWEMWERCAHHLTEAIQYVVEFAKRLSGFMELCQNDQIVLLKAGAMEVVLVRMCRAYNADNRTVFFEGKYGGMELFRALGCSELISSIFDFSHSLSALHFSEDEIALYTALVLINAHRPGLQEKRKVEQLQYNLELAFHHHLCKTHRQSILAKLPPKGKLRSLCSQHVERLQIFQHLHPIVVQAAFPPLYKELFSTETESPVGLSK
The test can be described thus: Jurkat reporter test (human IL-17 ROR response element luciferase, RORγt vector). It is filed as cell-based. Particulars: Jurkat cells; for inhibition at 3 µM: test compound 3 μM, read-out: luminescence level inhibitory rate at test compound 3 μM. As for the experimental part: The Jurkat cells used for the reporter test were cultured in a culture medium (RPMI (Invitrogen), 10% FCS (AusGeneX), 100 U/mL penicillin, 100 μg/mL streptomycin). On the day of the test, 4×10^7 cells were recovered by a centrifugal operation (1000 rpm, 5 min.) and suspended in PBS (phosphate buffered saline) (Invitrogen). Thereafter, the cells were recovered again by a centrifugal operation, and suspended in 2 mL of R buffer (NEON transfection kit, Invitrogen). […] Gene transfer was performed by Electroporation apparatus (NEON, Invitrogen) under the conditions of pulse voltage 1350 V, interval 10 milliseconds, number of times 3. The cells after gene transfer were suspended in 40 mL of a reaction medium (RPMI, 10% Lipid reduced FCS (HyClone), 10 mM HEPES (pH 7.5), 100 U/mL penicillin, 100 μg/mL streptomycin, 5 μM lovastatin), and plated in a 96 well plate by 90 μL. A test compound diluted with the reaction medium was added by 10 μL, and the cells were cultured overnight in an incubator. Bright-Glo (Promega) was added by 100 μL, and the mixture was stirred at room temperature for 10 min, and the luminescence level was measured by Envision (PerkinElmer).

Test [2] has as its target T1, RORγt. The test can be described thus: Cofactor recruitment test (Alpha Screen, biotinylated SRC-1 peptide). Particulars: for inhibition at 1 µM: read-out: signal value inhibitory rate at test compound 1 μM. The format is biochemical. As for the experimental part:
Cofactor Recruitment Test
Cofactor recruitment test was performed by Alpha Screen (Histidine Detection Kit, PerkinElmer) method. First, a test compound was diluted with an assay buffer (50 mM Tris-HCl (pH 7.5), 50 mM KCl, 1 mM DTT, 0.1% BSA) and added to a 384 well plate by 5 μL. […] The mixture was stood in a dark place for 1 hr, and the signal value was measured by Envision (PerkinElmer).

The target of test [3] is T1, RORγt. The test can be described thus: RORγt binding test using fluorescent-labeled synthetic ligand (TR-FRET). Particulars: for inhibition at 1 µM: read-out: binding inhibitory rate of fluorescent-labeled synthetic ligand to RORγt at test compound 1 μM. On the procedure:
RORγt Binding Test using Fluorescent-Labeled Synthetic Ligand
The binding activity of the test compound to RORγt was measured by a time resolved fluorescence resonance energy transfer method (TR-FRET) utilizing histidine-tagged RORγt, fluorescent-labeled synthetic ligand and terbium-labeled anti-histidine tag antibody (Invitrogen). First, a test compound diluted with an assay buffer (20 mM Tris-HCl (pH 7.5), 100 mM NaCl, 1 mM DTT, 0.1% BSA) was added to a 384 well plate by 3 μL. Then, RORγt diluted with an assay buffer to 240 nM was added by 3 μL, after which fluorescent-labeled synthetic ligand diluted with the assay buffer to 12 μM was added by 3 μL, and the mixture was stood at room temperature for 20 min. Thereafter, a terbium-labeled anti-histidine tag antibody diluted with the assay buffer to 8 nM was added by 3 μL. The mixture was stood at room temperature for 20 min, and fluorescence intensity (excitation wavelength 320 nm, fluorescence wavelength 520 nm, delay time 100 microseconds) was measured by Envision (PerkinElmer).
In general terms: In TR-FRET formats the signal depends on donor and acceptor labels being close together.

For `COc1ccc2c(c1)CCN(C(=O)C1CC1C(=O)O)[C@H]2C(=O)Nc1cc(F)c([Si](C)(C)C)c(F)c1` (single isomer, unassigned) [Example 3], the inhibition at 3 µM at RORγt [1] stood at 97%. For the same molecule, the inhibition at 1 µM on RORγt [2] was found to be 84%; at RORγt [3], 102%.

In the case of `COc1ccc2c(c1)CCN(C(=O)[C@H]1C[C@H](C(=O)O)C1)[C@H]2C(=O)Nc1cc(F)c([Si](C)(C)C)c(F)c1` [Example 12, trans-3-(((1R)-1-((3,5-difluoro-4-(trimethylsilyl)phenyl)carbamoyl)-6-methoxy-3,4-dihydroisoquinolin-2(1H)-yl)carbonyl)cyclobutanecarboxylic acid], the inhibition at 3 µM at RORγt [1] was found to be 99%. The inhibition at 1 µM worked out at 91% at RORγt [2] and 102% at RORγt [3].

In the case of `COc1ccc2c(n1)CCN(C(=O)[C@@H]1C[C@H]1CC(=O)O)[C@H]2C(=O)Nc1cc(F)c([Si](C)(C)C)c(F)c1` [Example 14, ((1S,2R)-2-(((5R)-5-((3,5-difluoro-4-(trimethylsilyl)phenyl)carbamoyl)-2-methoxy-7,8-dihydro-1,6-naphthyridin-6(5H)-yl)carbonyl)cyclopropyl)acetic acid], the inhibition at 3 µM on RORγt [1] amounted to 100%. In addition, the values for the inhibition at 1 µM on RORγt [2] and on RORγt [3] were 86% and 101%, respectively.

With `CCOc1ccc2c(c1)CCN(C(=O)[C@H]1C[C@@H](CC(=O)O)C1)[C@H]2C(=O)Nc1cc(F)c(C(C)(C)COC)c(F)c1` [Example 17, (cis-3-(((1R)-1-((3,5-difluoro-4-(1-methoxy-2-methylpropan-2-yl)phenyl)carbamoyl)-6-ethoxy-3,4-dihydroisoquinolin-2(1H)-yl)carbonyl)cyclobutyl)acetic acid], the inhibition at 3 µM at RORγt [1] (Jurkat) stood at 99%. Moreover, the inhibition at 1 µM on RORγt [2] (test compound 1 μM) worked out at 85%; at RORγt [3] (test compound 1 μM) it was 101%.

For `COc1ccc2c(c1)CCN(C(=O)[C@H]1C[C@H](CC(=O)O)C1)[C@H]2C(=O)Nc1cc(F)c([Si](C)(C)C)c(F)c1` [Example 27, (trans-3-(((1R)-1-((3,5-difluoro-4-(trimethylsilyl)phenyl)carbamoyl)-6-methoxy-3,4-dihydroisoquinolin-2(1H)-yl)carbonyl)cyclobutyl)acetic acid], the inhibition at 3 µM on RORγt [1] is 103%. Further, the figures for the inhibition at 1 µM at RORγt [2] and on RORγt [3] were 91% and 102%, respectively.

Take `COc1ccc2c(c1)CCN(C(=O)[C@@H]1C[C@H]1CC(=O)O)[C@H]2C(=O)Nc1cc(F)c([Si](C)(C)C)c(F)c1` [Example 30, ((1S,2R)-2-(((1R)-1-((3,5-difluoro-4-(trimethylsilyl)phenyl)carbamoyl)-6-methoxy-3,4-dihydroisoquinolin-2(1H)-yl)carbonyl)cyclopropyl)acetic acid]: the inhibition at 3 µM at RORγt [1] is 100%. Also, the inhibition at 1 µM on RORγt [2] was 90%; at RORγt [3], 101%.

For `COc1ccc2c(c1)CCN(C(=O)[C@H]1C[C@H](CC(=O)O)C1)[C@H]2C(=O)Nc1ccc([Si](C)(C)C)c(F)c1` [Example 34, (trans-3-(((1R)-1-((3-fluoro-4-(trimethylsilyl)phenyl)carbamoyl)-6-methoxy-3,4-dihydroisoquinolin-2(1H)-yl)carbonyl)cyclobutyl)acetic acid], on RORγt [1], the inhibition at 3 µM is 100%. In addition, the figures for the inhibition at 1 µM at RORγt [2] and at RORγt [3] were 88% and 102%, respectively.

As for `COCC(C)(C)c1c(F)cc(NC(=O)[C@H]2c3ccc(OC)cc3CCN2C(=O)[C@H]2C[C@@H](CC(=O)O)C2)cc1F` [Example 35, (cis-3-(((1R)-1-((3,5-difluoro-4-(1-methoxy-2-methylpropan-2-yl)phenyl)carbamoyl)-6-methoxy-3,4-dihydroisoquinolin-2(1H)-yl)carbonyl)cyclobutyl)acetic acid], the inhibition at 3 µM at RORγt [1] (Jurkat) came to 99%. Moreover, the inhibition at 1 µM worked out at 83% at RORγt [2] (test compound 1 μM) and 102% at RORγt [3] (test compound 1 μM).

For the molecule `COc1ccc2c(n1)CCN(C(=O)[C@H]1C[C@@H](C(=O)OCc3ccccc3)C1)[C@H]2C(=O)Nc1cc(F)c2c(c1)CCC2(C)C` [Example 36, benzyl cis-3-(((5R)-5-((7-fluoro-1,1-dimethyl-2,3-dihydro-1H-inden-5-yl)carbamoyl)-2-methoxy-7,8-dihydro-1,6-naphthyridin-6(5H)-yl)carbonyl)cyclobutanecarboxylate], the inhibition at 3 µM at RORγt [1] (Jurkat) amounted to 102%. In addition, the results for the inhibition at 1 µM on RORγt [2] (test compound 1 μM) and at RORγt [3] (test compound 1 μM) were 72% and 102%, respectively.

On to `COc1ccc2c(n1)CCN(C(=O)[C@H]1C[C@@H](CC(=O)OCc3oc(=O)oc3C)C1)[C@H]2C(=O)Nc1cc(F)c2c(c1)CCC2(C)C` [Example 38, (5-methyl-2-oxo-1,3-dioxol-4-yl)methyl (cis-3-(((5R)-5-((7-fluoro-1,1-dimethyl-2,3-dihydro-1H-inden-5-yl)carbamoyl)-2-methoxy-7,8-dihydro-1,6-naphthyridin-6(5H)-yl)carbonyl)cyclobutyl)acetate], for which the inhibition at 3 µM on RORγt [1] (Jurkat) was 102%. The inhibition at 1 µM was found to be 61% at RORγt [2] (test compound 1 μM) and 102% on RORγt [3] (test compound 1 μM).

Take `CCOC(=O)C[C@H]1C[C@@H](C(=O)N2CCc3nc(OC)ccc3[C@@H]2C(=O)Nc2cc(F)c3c(c2)CCC3(C)C)C1` [Example 39, ethyl (cis-3-(((5R)-5-((7-fluoro-1,1-dimethyl-2,3-dihydro-1H-inden-5-yl)carbamoyl)-2-methoxy-7,8-dihydro-1,6-naphthyridin-6(5H)-yl)carbonyl)cyclobutyl)acetate]: on RORγt [1] (Jurkat), the inhibition at 3 µM was determined as 103%. The inhibition at 1 µM on RORγt [2] (test compound 1 μM) is 63%; at RORγt [3] (test compound 1 μM), 101%.

Turning to `COCc1ccc2c(c1)CCN(C(=O)[C@H]1C[C@@H](CC(=O)O)C1)[C@H]2C(=O)Nc1cc(F)c2c(c1)CCC2(C)C` [Example 40-A, monopotassium (cis-3-(((1R)-1-((7-fluoro-1,1-dimethyl-2,3-dihydro-1H-inden-5-yl)carbamoyl)-6-(methoxymethyl)-3,4-dihydroisoquinolin-2(1H)-yl)carbonyl)cyclobutyl)acetate acetonitrile solvate], on RORγt [1] (3 µM), the “luminescence level inhibitory rate at test compound 3 μM” value is on record as 104%. Moreover, on RORγt [2] (test compound 1 μM, 1 µM), the “signal value inhibitory rate at test compound 1 μM” value was determined as 87%. For the same molecule, the “binding inhibitory rate of fluorescent-labeled synthetic ligand to RORγt at test compound 1 μM” value at RORγt [3] (test compound 1 μM, 1 µM) amounted to 102%.

Take `COc1ccc2c(n1)CCN(C(=O)[C@H]1C[C@@H](C(=O)OCc3oc(=O)oc3C)C1)[C@H]2C(=O)Nc1cc(F)c2c(c1)CCC2(C)C` [Example 44, (5-methyl-2-oxo-1,3-dioxol-4-yl)methyl cis-3-(((5R)-5-((7-fluoro-1,1-dimethyl-2,3-dihydro-1H-inden-5-yl)carbamoyl)-2-methoxy-7,8-dihydro-1,6-naphthyridin-6(5H)-yl)carbonyl)cyclobutanecarboxylate]: at RORγt [1] (Jurkat), the inhibition at 3 µM stood at 102%. Also, the inhibition at 1 µM at RORγt [2] (test compound 1 μM) was determined as 61%; on RORγt [3] (test compound 1 μM) it was 102%.

With `COC(=O)C[C@H]1C[C@@H](C(=O)N2CCc3nc(OC)ccc3[C@@H]2C(=O)Nc2cc(F)c3c(c2)CCC3(C)C)C1` [Example 45, methyl (cis-3-(((5R)-5-((7-fluoro-1,1-dimethyl-2,3-dihydro-1H-inden-5-yl)carbamoyl)-2-methoxy-7,8-dihydro-1,6-naphthyridin-6(5H)-yl)carbonyl)cyclobutyl)acetate], on RORγt [1] (Jurkat), the inhibition at 3 µM is 101%. Besides, the inhibition at 1 µM worked out at 66% on RORγt [2] (test compound 1 μM) and 101% on RORγt [3] (test compound 1 μM).
